The values below come from ChEMBL document CHEMBL3865840, “Minimizing CYP2C9 Inhibition of Exposed-Pyridine NAMPT (Nicotinamide Phosphoribosyltransferase) Inhibitors” (J Med Chem, 2016).

In test [1] the target is T1, Cytochrome P450 3A4 (Homo sapiens, UniProt P08684).
Another test has as its target Cytochrome P450 2D6 (Homo sapiens, UniProt P10635).
The next test concerns the target T2, Cytochrome P450 1A2 (Homo sapiens, UniProt P05177).
T2 sequence (P05177 whole entry): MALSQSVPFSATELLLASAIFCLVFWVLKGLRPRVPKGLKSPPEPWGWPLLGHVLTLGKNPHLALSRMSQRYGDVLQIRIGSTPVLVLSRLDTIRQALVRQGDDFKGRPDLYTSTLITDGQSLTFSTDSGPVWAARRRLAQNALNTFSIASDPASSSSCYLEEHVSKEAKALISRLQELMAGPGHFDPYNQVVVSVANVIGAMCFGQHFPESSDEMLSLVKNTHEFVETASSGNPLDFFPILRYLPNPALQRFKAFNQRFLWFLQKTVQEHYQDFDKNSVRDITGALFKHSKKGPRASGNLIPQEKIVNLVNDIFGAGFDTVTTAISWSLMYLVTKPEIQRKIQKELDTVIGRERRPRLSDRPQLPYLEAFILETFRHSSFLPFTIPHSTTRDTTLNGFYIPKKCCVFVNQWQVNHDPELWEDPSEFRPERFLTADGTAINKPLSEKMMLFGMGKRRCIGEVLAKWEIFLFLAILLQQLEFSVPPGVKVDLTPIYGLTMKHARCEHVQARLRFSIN

Test [2] has as its target T3, Cytochrome P450 2C9 (Homo sapiens, UniProt P11712).
Test [3] has as its target T1, Cytochrome P450 3A4. Description: Inhibition of CYP3A4 in human liver microsomes using testosterone as substrate in presence of NADPH by LC-MS/MS analysis. The test is classed as ADME. (In general: Liver microsomes are a subcellular fraction often used to study metabolism.)
The next test addresses Cytochrome P450 2C19 (Homo sapiens, UniProt P33261).
For test [4], the target named is T3, Cytochrome P450 2C9. This is another data set of the same source.

T3 sequence (P11712 whole entry): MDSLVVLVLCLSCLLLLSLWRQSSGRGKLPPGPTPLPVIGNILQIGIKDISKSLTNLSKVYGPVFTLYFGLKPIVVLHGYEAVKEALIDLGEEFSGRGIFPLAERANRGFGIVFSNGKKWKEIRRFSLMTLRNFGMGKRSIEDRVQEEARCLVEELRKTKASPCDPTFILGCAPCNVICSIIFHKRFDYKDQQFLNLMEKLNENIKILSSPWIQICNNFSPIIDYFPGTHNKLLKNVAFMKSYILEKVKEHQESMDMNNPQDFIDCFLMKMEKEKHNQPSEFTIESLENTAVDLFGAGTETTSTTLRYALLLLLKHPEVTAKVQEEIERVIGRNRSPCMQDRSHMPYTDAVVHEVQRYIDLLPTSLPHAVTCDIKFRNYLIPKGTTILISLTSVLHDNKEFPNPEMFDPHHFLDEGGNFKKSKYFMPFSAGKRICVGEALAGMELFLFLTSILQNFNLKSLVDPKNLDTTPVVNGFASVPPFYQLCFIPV
T1 sequence (P08684 whole entry): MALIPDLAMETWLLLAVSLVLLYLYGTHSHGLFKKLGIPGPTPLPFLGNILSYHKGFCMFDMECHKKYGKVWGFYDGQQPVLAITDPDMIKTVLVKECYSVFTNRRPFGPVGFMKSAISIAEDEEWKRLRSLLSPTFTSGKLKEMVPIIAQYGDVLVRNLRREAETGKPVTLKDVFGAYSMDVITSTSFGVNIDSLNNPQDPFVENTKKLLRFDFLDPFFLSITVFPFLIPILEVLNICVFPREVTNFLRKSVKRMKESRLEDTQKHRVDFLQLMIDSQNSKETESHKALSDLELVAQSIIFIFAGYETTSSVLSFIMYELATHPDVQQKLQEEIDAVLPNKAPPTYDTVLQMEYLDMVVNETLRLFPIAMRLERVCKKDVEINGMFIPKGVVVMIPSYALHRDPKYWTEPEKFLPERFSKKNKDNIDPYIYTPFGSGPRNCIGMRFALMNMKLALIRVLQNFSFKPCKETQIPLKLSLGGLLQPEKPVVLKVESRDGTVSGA
Cytochrome P450 2C19, sequence (P33261 whole entry): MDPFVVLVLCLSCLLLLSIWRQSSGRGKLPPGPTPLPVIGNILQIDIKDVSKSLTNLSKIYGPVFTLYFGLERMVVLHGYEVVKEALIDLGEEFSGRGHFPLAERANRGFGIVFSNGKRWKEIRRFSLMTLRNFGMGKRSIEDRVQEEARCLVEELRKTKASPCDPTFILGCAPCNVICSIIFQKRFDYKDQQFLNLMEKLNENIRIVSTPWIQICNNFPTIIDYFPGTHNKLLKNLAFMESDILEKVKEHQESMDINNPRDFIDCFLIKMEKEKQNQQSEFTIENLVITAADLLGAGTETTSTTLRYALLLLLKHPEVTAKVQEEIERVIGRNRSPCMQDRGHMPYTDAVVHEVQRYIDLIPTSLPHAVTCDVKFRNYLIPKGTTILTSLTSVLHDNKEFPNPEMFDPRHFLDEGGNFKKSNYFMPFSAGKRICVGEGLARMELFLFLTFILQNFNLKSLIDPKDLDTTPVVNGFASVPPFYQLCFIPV
Cytochrome P450 2D6, sequence (P10635 whole entry): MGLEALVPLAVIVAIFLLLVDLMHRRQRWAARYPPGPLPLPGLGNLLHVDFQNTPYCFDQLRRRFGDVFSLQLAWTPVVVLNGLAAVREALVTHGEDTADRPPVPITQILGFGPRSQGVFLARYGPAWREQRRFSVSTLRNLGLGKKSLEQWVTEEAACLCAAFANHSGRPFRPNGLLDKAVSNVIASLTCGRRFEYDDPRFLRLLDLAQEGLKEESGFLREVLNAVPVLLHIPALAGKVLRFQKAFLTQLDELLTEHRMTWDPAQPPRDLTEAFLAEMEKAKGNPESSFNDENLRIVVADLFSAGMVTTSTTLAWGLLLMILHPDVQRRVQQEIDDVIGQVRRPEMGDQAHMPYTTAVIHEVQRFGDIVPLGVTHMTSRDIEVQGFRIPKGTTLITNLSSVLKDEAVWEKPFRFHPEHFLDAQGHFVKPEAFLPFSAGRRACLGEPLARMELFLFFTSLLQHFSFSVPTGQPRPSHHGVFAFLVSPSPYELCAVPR

Consider `O=C(NCc1ccc(S(=O)(=O)c2cccc(C(F)(F)F)c2)cc1)c1cnc2[nH]ncc2c1`, for which the IC50 on Cytochrome P450 3A4 [1] is 9 µM; on Cytochrome P450 2D6, more than 10 µM; against Cytochrome P450 1A2, more than 10 µM; on Cytochrome P450 2C9 [2] it was 4.8 µM; on Cytochrome P450 3A4 [3], 7.9 µM; at Cytochrome P450 2C19, 6.5 µM. Further, the concentration for half-maximal inhibition (IC50) against Cytochrome P450 2C9 [4] came out at 0.07 µM.

As a reminder, the IC50 is the midpoint of a concentration-inhibition curve.
